Data from patent US6013632A, “Compounds and their combinations for the treatment of influenza infection” (Emory University, priority 1998, dated 2000).

Tests used:
[1] = test system: MDCK cells; details: 10 mM
Protocol: GSH was measured in MDCK cells after infection with influenza virus either without or with 10 mM GSH.

[2] = test system: Influenza A/WSN strain; details: 30 mM, normal human SAEC, cultured up to 72 h
Protocol: SAEC were cultured until 70% confluent. Cells were washed and inoculated with influenza A/WSN strain for 2 h. After washing to remove non-adherent virus, cells were cultured for up to 72 h in medium without or with GSH and assayed for virus production by HA titer.

[3] = test system: MDCK cells
[4] = test system: Influenza A/WSN strain; details: normal human SAEC, plaque forming assay
[5] = test system: MDCK cells; remark: listed apart in the source
[6] = test system: Influenza A/WSN strain; assay: Virus production by HA titer in influenza-infected MDCK cells; format: cell-based; details: for Decreased virus production (HA titer): 48 hours post infection; for inhibition at 10000 µM / inhibition at 30000 µM: Influenza A virus, WSN
[7] = test system: viral proteins; details: 35S-methionine labeling after virus infection, without or with added compound
Protocol: To determine whether GSH altered viral protein synthesis and processing, cells were incubated with ^35 S-methionine to label newly synthesized proteins following virus infection either without or with added GSH. Cells were washed and lysed in SDS-PAGE buffer.

[8] = test system: influenza virus
[9] = test system: MDCK cells; assay: Toxicity to MDCK cells at the tested concentrations; details: 10 mM and 30 mM
[10] = test system: Influenza A/WSN strain; assay: Plaque-forming units in supernatant of infected MDCK cells; format: cell-based; details: 10 mM, 48 h
Protocol: MDCK cells were cultured in 100 mm dishes until 80% confluent. Cells were washed with phosphate-buffered saline and inoculated with Influenza A/WSN strain at a multiplicity of infection of 0.05-0.1 plaque-forming units/cell in serum-free DMEM medium for 2 hours. […] At 48 hours post infection, 100 μl supernatant from each dish was assayed for virus HA titer or plaque-forming units.

Molecule: N[C@@H](CCC(=O)N[C@@H](CS)C(=O)NCC(=O)O)C(=O)O [GSH, gamma-L-Glu-L-Cys-Gly]
- Effect on cellular GSH ([1]; MDCK cells, absence of virus): did not increase cellular GSH
- Effect on loss of cellular GSH ([1]; virus-infected MDCK cells): did not prevent the loss of GSH
- Decrease of virus production (HA titer) [2]: greater than 90%
- Apoptosis caused by the compound alone ([3]; no virus): did not cause apoptosis
- Effect on apoptosis of virus infected cells ([3]; up to 30 mM, 48 h): unaffected
- Confirmation of decreased virus production by number of infectious particles [4]: confirmed
- Toxicity to the cells [5]: not toxic
- Decreased virus production (HA titer) ([6]; 1 mM): 30%
- Decreased virus production (HA titer) ([6]; 5 mM): 60%
- Inhibition of virus production (HA titer) ([6]; 10 mM, 48 h post infection): 56%
- Inhibition of virus production (HA titer) ([6]; 30 mM, 48 h post infection): 90%
- Patterns or amounts of labeled viral proteins [7]: no detectable differences
- Decrease in virus production ([8]; 10-30 mM co-incubated with virus and MDCK cells for 2 h, washed, then 48 h): no decrease
- Decrease of HA titer ([8]; added after incubation of cells with virus, 48 h, MDCK cells): 85%
- Effect on virus production after 48 h ([8]; virus incubated 1 h with up to 30 mM before incubation with MDCK cells): no effect

Molecule: CC(=O)N[C@@H](CS)C(=O)O [NAC, N-Acetyl-L-cysteine, reference compound]
- Toxicity to cells [9]: not toxic
- inhibition at 10000 µM ([6]; 10 mM, 24 h): 50%
- inhibition at 10000 µM ([6]; 10 mM, 48 h post infection): 62%
- inhibition at 30000 µM ([6]; 30 mM, 24 h): 75%
- inhibition at 30000 µM ([6]; 30 mM, 48 h post infection): 95%

Molecule: Ascorbate-2-phosphate
- Inhibition of virus production (HA titer) ([6]; 10 mM, 48 h post infection): 37%
- Protection against virus titer and infectious particle production ([6]; 10 or 30 mM): provided protection
- Inhibition of plaque-forming units [10]: 50%
